In PubChem BioAssay (NCI):
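A five-concentration, 48-hour dose response in 96-well plates underlies each endpoint, interpolated linearly between surrounding concentrations. GI50 is the concentration that inhibits growth by half. Definition used: TGI = concentration required for complete inhibition of growth.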

Assays:
Experiment in all cases: inhibition of tumour cell growth, NCI panel, 48 h
[1] = test system: HCC-2998 colon
[2] = test system: MOLT-4 leukemia
[3] = test system: CCRF-CEM leukemia
[4] = test system: HOP-92 NSCLC
[5] = test system: RXF 393 renal
[6] = test system: UACC-62 melanoma
[7] = test system: SF-539 CNS
[8] = test system: LOX IMVI melanoma
[9] = test system: IGROV1 ovarian
[10] = test system: HCT-15 colon
[11] = test system: NCI/ADR-RES ovarian
[12] = test system: NCI-H522 lung
[13] = test system: HT29 colon
[14] = test system: SK-MEL-28 melanoma
[15] = test system: NCI-H460 lung
[16] = test system: OVCAR-3 ovarian
[17] = test system: 786-0 renal
[18] = test system: COLO 205 colon
[19] = test system: MCF7 breast
[20] = test system: SNB-75 CNS
[21] = test system: UACC-257 melanoma
[22] = test system: MDA-MB-231 breast
[23] = test system: U251 CNS
[24] = test system: HOP-62 NSCLC
[25] = test system: NCI-H226 lung
[26] = test system: A549 NSCLC
[27] = test system: OVCAR-8 ovarian
[28] = test system: SN12C renal
[29] = test system: K-562 leukemia
[30] = test system: UO-31 renal
[31] = test system: M14 melanoma
[32] = test system: SK-MEL-5 melanoma
[33] = test system: KM12 colon
[34] = test system: A498 renal
[35] = test system: DU-145 prostate
[36] = test system: SW-620 colon
[37] = test system: OVCAR-5 ovarian
[38] = test system: SF-268 CNS
[39] = test system: T-47D breast
[40] = test system: SK-OV-3 ovarian
[41] = test system: MDA-MB-435
[42] = test system: HCT-116 colon
[43] = test system: HS 578T breast
[44] = test system: EKVX NSCLC
[45] = test system: MALME-3M melanoma
[46] = test system: CAKI-1 renal
[47] = test system: RPMI-8226 leukemia
[48] = test system: TK-10 renal
[49] = test system: OVCAR-4 ovarian
[50] = test system: HL-60(TB) leukemia
[51] = test system: NCI-H23 lung
[52] = test system: SK-MEL-2 melanoma
[53] = test system: BT-549 breast
[54] = test system: SNB-19 CNS
[55] = test system: ACHN renal
[56] = test system: SF-295 CNS
[57] = test system: PC-3 prostate

For `C=CC(=O)N1C[C@@H]2CCOc3c(Cl)c(-c4c(O)cccc4F)c(F)c4ncnc(c34)N2C[C@H]1C`, the GI50 [1] was 15.2 µM, the TGI [1] was 28.8 µM and the GI50 [2] was 5.79 µM. The TGI [2] was > 100 µM, the GI50 [3] was 11.5 µM and the TGI [3] was > 100 µM. The GI50 [4] was 17 µM, the TGI [4] was 39 µM and the GI50 [5] was 2.15 µM. The TGI [5] was 15.1 µM, the GI50 [6] was 4.17 µM and the TGI [6] was 18.8 µM. The GI50 [7] was 12.9 µM, the TGI [7] was 25.8 µM and the GI50 [8] was 12 µM. The TGI [8] was 24.4 µM, the GI50 [9] was 17.4 µM and the TGI [9] was 46.6 µM. For the same molecule, the GI50 [10] was 11.8 µM, the TGI [10] was 26.6 µM and the GI50 [11] was 17.4 µM. The TGI [11] was 62.6 µM, the GI50 [12] was 14.2 µM and the TGI [12] was 30.9 µM. For the same molecule, the GI50 [13] was 18.6 µM, the TGI [13] was 52.5 µM and the GI50 [14] was 13.5 µM. For the same molecule, the TGI [14] was 27.1 µM, the GI50 [15] was 15.2 µM and the TGI [15] was 32.1 µM. The GI50 [16] was 6.11 µM, the TGI [16] was 18.5 µM and the GI50 [17] was 14.7 µM. The TGI [17] was 29.4 µM, the GI50 [18] was 17.6 µM and the TGI [18] was 35.9 µM. The GI50 [19] was 14.1 µM, the TGI [19] was 34.5 µM and the GI50 [20] was 10.8 µM. The TGI [20] was 23.5 µM, the GI50 [21] was 13 µM and the TGI [21] was 30.3 µM. The GI50 [22] was 11.5 µM, the TGI [22] was 27.7 µM and the GI50 [23] was 15 µM. The TGI [23] was 36.2 µM, the GI50 [24] was 0.0507 µM and the TGI [24] was 25.5 µM. The GI50 [25] was 13.1 µM, the TGI [25] was 45.2 µM and the GI50 [26] was 15.3 µM. The TGI [26] was 34.7 µM, the GI50 [27] was 16.5 µM and the TGI [27] was 56.6 µM. It also gave a GI50 [28] of 13 µM, a TGI [28] of 31.3 µM and a GI50 [29] of 8.72 µM. For the same molecule, the TGI [29] was > 100 µM, the GI50 [30] was 12.3 µM and the TGI [30] was 25.3 µM. For the same molecule, the GI50 [31] was 12.5 µM, the TGI [31] was 27.7 µM and the GI50 [32] was 13.1 µM. For the same molecule, the TGI [32] was 25.9 µM, the GI50 [33] was 14.7 µM and the TGI [33] was 36.1 µM. It also gave a GI50 [34] of 13.6 µM, a TGI [34] of 28.1 µM and a GI50 [35] of 10.5 µM. It also gave a TGI [35] of 22.3 µM, a GI50 [36] of 13.9 µM and a TGI [36] of 33.1 µM. For the same molecule, the GI50 [37] was 16.3 µM, the TGI [37] was 31.1 µM and the GI50 [38] was 12.5 µM. It also gave a TGI [38] of 29.1 µM, a GI50 [39] of 14.9 µM and a TGI [39] of 87.4 µM. For the same molecule, the GI50 [40] was 17.3 µM, the TGI [40] was 42.7 µM and the GI50 [41] was 11.8 µM. For the same molecule, the TGI [41] was 29.6 µM, the GI50 [42] was 11.2 µM and the TGI [42] was 24.5 µM. The GI50 [43] was 16.5 µM, the TGI [43] was 89.2 µM and the GI50 [44] was 14.4 µM. It also gave a TGI [44] of 27.8 µM, a GI50 [45] of 10.8 µM and a TGI [45] of 23.8 µM. For the same molecule, the GI50 [46] was 2.67 µM, the TGI [46] was 19.4 µM and the GI50 [47] was 5.96 µM. The TGI [47] was > 100 µM, the GI50 [48] was 16.1 µM and the TGI [48] was 33.3 µM. For the same molecule, the GI50 [49] was 9.18 µM, the TGI [49] was 72 µM and the GI50 [50] was 4.81 µM. For the same molecule, the TGI [50] was 33.1 µM, the GI50 [51] was 0.0328 µM and the TGI [51] was 13.1 µM. The GI50 [52] was 14 µM, the TGI [52] was 28.7 µM and the GI50 [53] was 2.48 µM. The TGI [53] was 12.9 µM, the GI50 [54] was 14.6 µM and the TGI [54] was 28 µM. The GI50 [55] was 10.5 µM, the TGI [55] was 22.2 µM and the GI50 [56] was 15.6 µM. For the same molecule, the TGI [56] was 32.5 µM, the GI50 [57] was 17.9 µM and the TGI [57] was > 100 µM.
In the case of `COc1cc2cc(C(=O)N3CC(CCl)c4ccc([N+](=O)[O-])cc43)[nH]c2c(OC)c1OC` (stereo not drawn), the TGI [1] is reported as > 100 µM, the TGI [2] is reported as > 100 µM and the TGI [3] is reported as > 100 µM. The TGI [4] was > 100 µM, the TGI [5] was > 100 µM and the TGI [6] was > 100 µM. The TGI [7] was > 100 µM, the TGI [8] was > 100 µM and the TGI [9] was > 100 µM. The TGI [10] was > 100 µM, the TGI [11] was > 100 µM and the TGI [12] was > 100 µM. The TGI [13] was 36.7 µM, the TGI [14] was > 100 µM and the TGI [16] was > 100 µM. For the same molecule, the TGI [17] was > 100 µM, the TGI [18] was > 100 µM and the TGI [19] was > 100 µM. The TGI [20] was > 100 µM, the TGI [21] was > 100 µM and the TGI [22] was > 100 µM. The TGI [23] was > 100 µM, the TGI [24] was > 100 µM and the TGI [26] was > 100 µM. The TGI [27] was > 100 µM, the TGI [28] was > 100 µM and the TGI [29] was > 100 µM. For the same molecule, the TGI [30] was > 100 µM, the TGI [31] was > 100 µM and the TGI [32] was > 100 µM. The TGI [33] was > 100 µM, the TGI [34] was > 100 µM and the TGI [35] was > 100 µM. For the same molecule, the TGI [36] was > 100 µM, the TGI [37] was > 100 µM and the TGI [38] was > 100 µM. For the same molecule, the TGI [39] was > 100 µM, the TGI [41] was > 100 µM and the TGI [42] was > 100 µM. For the same molecule, the TGI [43] was > 100 µM, the TGI [44] was 67.2 µM and the TGI [45] was > 100 µM. For the same molecule, the TGI [46] was > 100 µM, the TGI [47] was > 100 µM and the TGI [48] was > 100 µM. For the same molecule, the TGI [49] was > 100 µM, the TGI [50] was > 100 µM and the TGI [51] was > 100 µM. The TGI [52] was > 100 µM, the TGI [53] was > 100 µM and the TGI [54] was > 100 µM. For the same molecule, the TGI [55] was > 100 µM, the TGI [56] was > 100 µM and the TGI [57] was > 100 µM.
